Read-outs that look alike come from different tables or passages of the source. Blank lines part the entries; values can stand above or below the compound they belong to.
Legend:
[1] = Interconversion clearance between 6G and 6S after intravenous administration; format: in vivo, Female Sprague Dawley rats; conditions: single i.v. 3 mg/kg; for clearance: female, Sprague-Dawley, rat, plasma, iv
Protocol: The interconversion between 6G and 6S was determined using previously published methods ([Ebling and Jusko, 1986]; [Prueksaritanont et al., 2005]). The clearance of 6G biotransformed into 6S was calculated as CL12, while the reverse clearance (6S → 6G) was calculated as CL21. The irreversible elimination clearances of 6G and 6S were calculated as CL10 and CL20, respectively. The following equations were used in accordance with the notation provided in Supplementary Table S3. CL12=Dose^shogaol […] CL21=Dose^gingerol […] CL10=Dose^gingerol x AUCshogaolshogaol- Dose^shogaol […] CL20=Dose^shogaol […]- Dose^gingerol […]

[2] = design: method as in Xu et al. (2016) and Jiang et al. (2008); conditions: 6G after oral administration in rats; ref Xu et al. (2016) and Jiang et al. (2008); cited from earlier work
[3] = Pharmacokinetics after single intravenous administration (3 mg/kg), plasma LC-MS/MS; format: in vivo, Female Sprague Dawley rats; conditions: female, Sprague-Dawley, rat, iv, plasma analyte after zingerone i.v. 3 mg/kg, mean ± SD n=6
Protocol: This study is composed of two sections; the first section involves an investigation of the interconversion pharmacokinetics of the pure compounds, and the second focuses on tissue distribution. All rats were transferred to metabolic cages and fasted overnight for at least 10 h. The animals were then randomly divided into four groups (6 rats/group) to receive a single intravenous (i.v.) administration of either 6G, 6S, zingerone, or vehicle via the lateral tail vein at a dosage of 3 mg/kg. After a 7-week washout period, the rats received 30 mg/kg of the same test compounds through a single oral (p.o.) administration. Following each administration, blood samples (300 µL) were collected in heparinized tubes from the lateral tail vein (while rats were under anesthesia with isoflurane) at specified time points: 0.083, 0.25, 0.5, 1, 1.5, 2, 3, 4, 6, 8, and 24 h after administration. An additional 1 mL of blood sample was collected from each rat at pre-dose (0 h) and post-dose (24 h) for clinical laboratory testing and safety evaluation. All heparinized blood samples were initially centrifuged at 5,000 × g, 4 °C, for 10 min. Subsequently, the plasma was carefully transferred to a cryotube as an aliquot sample and then stored at −40 °C until analysis. Urine and feces were collected during the intervals of 0–24 h and 24–48 h post-dosing, and their weights and volumes were documented. All collected urine and feces samples were stored at −40 °C until analysis. Plasma samples were processed through protein precipitation. In brief, 50 µL of plasma was mixed with 200 µL of methanol containing 50 ng/mL of IS (dihydrocapsaicin). The mixtures were vortexed and centrifuged at 14,000 × g at 4 °C for 10 min. The supernatant was filtered through a […] PVDF membrane (Chrome Tech, MN, USA) before analysis. Investigation of glucuronide conjugations followed a previously published method with some modification ([Wang et al., 2017]; [Songvut et al., 2023]). A 50 μL aliquot of plasma, urine, or feces sample was incubated at 37 °C for a minimum of 30 min with 50 μL of β-glucuronidase (3,000 U/mL) in a sodium phosphate buffer (pH 6.8). For sample extraction, 150 μL of methanol containing 50 μg/L of IS was pipetted into the pre-incubated samples. Subsequently, the mixtures were vortexed for 10 min and then centrifuged at 14,000 × g at 4 °C for 10 min. The supernatants were filtered through a […] PVDF membrane (Chrome Tech, MN, United States) and then analyzed using the validated LC-MS/MS method. Quantitative analysis was conducted using liquid chromatography-tandem mass spectrometry (LC-MS/MS) with a Nexera X2 LCMS-8060NX instrument (Shimadzu, Japan). The instrument included a CBM-40lite system controller, CTO-40C column oven, SIL-40C XR autosampler, LC-40D XR solvent pump unit, FCV-DGU-403 degasser, and 20AH2 switching valve. The LC-MS/MS system was operated with a binary pump and equipped with a triple quadrupole mass spectrometer. Pharmacokinetic parameters were assessed using PK Solutions software (version 2.0) with non-compartmental analysis. The AUC was calculated using the Linear-Log Trapezoidal Method. The maximum plasma concentration (Cmax) and time to reach maximum plasma concentration (Tmax) were taken directly from the graph.

clearance ([1]; read-out: CL10 (irreversible elimination clearance of 6G) (converted)): 8.67 mL/min/kg
CL12 relative to reverse clearance CL21 [1]: approximately sevenfold greater
SMILES: CCCCC[C@H](O)CC(=O)CCc1ccc(O)c(OC)c1 [[6]-gingerol]
Tmax [2]: 10 min

SMILES: CCCCC/C=C/C(=O)CCc1ccc(O)c(OC)c1 [[6]-shogaol]
clearance ([1]; read-out: CL20 (irreversible elimination clearance of 6S) (converted)): 11.3 mL/min/kg

SMILES: COc1cc(CCC(C)=O)ccc1O [zingerone, 4-(4-hydroxy-3-methoxyphenyl)-2-butanone]
AUC(0-inf) [3]: 12600 ng·h/mL
C0 [3]: 35100 ng/mL
AUC(0-t) ([3]; read-out: AUC(0-t)): 12600 ng·h/mL

Reference: paper PMC11187260, “Unraveling the interconversion pharmacokinetics and oral bioavailability of the major ginger constituents: [6]-gingerol, [6]-shogaol, and zingerone after single-dose administration in rats” (Frontiers in Pharmacology, 2024)
